Patent US20240335542A1, “NANOMATERIALS COMPRISING DISULFIDES” (Beam Therapeutics Inc., priority 2021, published 2024)

Legend:
ALAS1 target site = assay: In vivo base editing with LNP carrying adenine base editor mRNA and sgRNA, targeted deep sequencing; settings: LNP with ABE mRNA + sgRNA, 0.15 mg/kg total RNA, tail vein, Balb/C mice, four to six days post-dose
Protocol: Exemplary LNP preparations were selected to determine each preparation's ability to perform base editing in a Balb/C mouse model as described herein.
Lipid nanoparticle components were dissolved in 100% ethanol at specified lipid component molar ratios. mRNA encoding an adenine base editor and a chemically-modified sgRNA was dissolved at a mass ratio of 1:1 in 50 mM citrate, pH 4.0, resulting in a concentration of NA cargo of approximately 0.1 mg/mL.
LNP preparations were formulated with molar ratios of 47.5% Ionizable Lipid: 40% Cholesterol: 2.5% PEG2000-DMG: 10% DSPC total lipid to NA mass ratio of 6 to 12. […]
A 3:1 ratio of aqueous to organic solvent was maintained during mixing using differential flow rates. […] After this initial dialysis, each individual LNP preparation was characterized via dynamic light scattering (DLS) to measure size and polydispersity. pKa of a subpopulation of LNP preparations was measured via TNS assay. […]
Age-matched mice were also used to administer vehicle (1×TBS) via tail vein injection as a control. […] Base editing was determined by performing targeted deep sequencing analysis at the ALAS1 target site using extracted genomic DNA. […] Library size and concentration was confirmed by Fragment Analyzer (Agilent) and analyzed for whole genome sequencing using an Illumina HiSeq.

[1] = RNA encapsulation efficiency of LNPs by Ribogreen assay; type: physicochemical; settings: LNP of 47.5% ionizable lipid: 40% cholesterol: 2.5% PEG-2000 DMG: 10% DPSC, N/P 4-8
Protocol: (§1) LNPs were prepared with 47.5% Ionizable Lipid (e.g., a compound provided herein): 40% cholesterol: 2.5% PEG-2000 DMG; and 10% DPSC and an N/P ratio range of 4-8. LNPs were formed by microfluidic mixing of the lipid and NA solutions using a Precision Nanosystems NanoAssemblr Spark or Benchtop series Instruments, according to the manufacturers protocol. A ratio of aqueous to organic solvent of approximately 2:1 or 3:1 was maintained during mixing using differential flow rates. After mixing, LNPs were collected, diluted in phosphate buffer saline (PBS) or Tris-buffered saline (TBS) (approximately 1:1 v/v). Further buffer exchange was conducted using dialysis in PBS or TBS at 4° C. for 4 to 24 hours against a 20 kDa filter. After this initial dialysis, each individual LNP preparation was characterized via dynamic light scattering (DLS) to measure the size (e.g., diameter) and polydispersity. LNPs falling within specific diameter and polydispersity ranges were pooled, and further dialyzed against PBS or TBS at 4° C. for 1 to 4 hours against a 100 kDa dialysis cassette. After the second dialysis, LNPs were sterile filtered using 0.22 μm filter and stored at 4° C. for further use.
RNA concentration and encapsulation efficiency were determined by Ribogreen assay (BioTek Synergy LX plate reader).

[2] = LNP hydrodynamic diameter and polydispersity index by dynamic light scattering (DLS); type: physicochemical; settings: LNP of 47.5% ionizable lipid: 40% cholesterol: 2.5% PEG-2000 DMG: 10% DPSC, N/P 4-8
Protocol: as §1
LNP hydrodynamic diameter and polydispersity index (PDI) were measured using high throughput dynamic light scattering (DLS) (Stunner, Unchained Labs). LNPs were diluted 1×TBS or PBS to an appropriate concentration and analyzed.

[3] = LNP biodistribution in mice, barcode fold above input (FAI) in tissues; type: in vivo; settings: pooled LNP IV tail vein, 4 hours post-dose, fold above input of barcode
Protocol: Male and female mice aged approximately 8-12 weeks were used for studies described by the present Example. Each mouse was temporarily restrained and pooled LNP was administered IV via tail vein injection in up to five animals per experiment. Age-matched mice was also used to administer vehicle (1×TBS) via tail vein injection in up to three animals per experiment. Additional routes of administration can also be conducted including intracerebral ventricular (ICV), intracisterna manga (ICM), intrathecal (IT), intramuscular (IM), nebulization, intranasal (IN), subcutaneous (SC), intraarticular, and intradermal (ID). At 4 hours post-dose, tissues including liver, spleen, bone marrow, testes, gastrocnemius, quadricep, lung, heart, kidney, and pancreas may be collected for analysis.
RNA from tissues were extracted using the Reliaprep RNA extraction kit, and libraries were prepared using the RNAseq kit, and sequenced on either a MiSeq or NextSeg500.
To screen for preferential LNP delivery to a target tissues, the relative abundance of each barcode in one or more target tissues was measured and compared to the relative abundance of each barcode to its corresponding relative input abundance to determine fold above input (FAI) for each barcode. If the FAI of a barcode in a target tissue is above a threshold or above the FAI of a different LNP in the same tissue, the LNP can be identified as preferentially delivering to the target tissue.
The FAI is the normalized relative abundance of a barcode in a selected sample as compared to its frequency in the input. The FAI of a barcode indicates how a LNP's abundance changes relative to the rest of the LNP pool. The FAI value of the barcode was calculated by normalizing the relative abundance in the barcode sequence counts in the isolated samples to its relative abundance in the administration input. […] The FAI then indicates the performance of an LNP relative to the input LNP composition.

Mean Encapsulation Efficiency (%) [1] [%] | Mean Diameter (nm) [2] [nm] | Mean PDI [2] | FAI (Liver) ([3]; liver) | FAI (Lung) ([3]; lung) | FAI (Spleen) ([3]; spleen) | SMILES | base editing observed in liver (ALAS1 target site) [%]
87.7 | 74.9 | 0.08 |  |  |  | CC/C=C\CCCCOC(CCCC(=O)Oc1ccc(CC(=O)OCCC2CCN(CCSSCCN3CCC(CCOC(=O)Cc4ccc(OC(=O)CCCC(OCCCC/C=C\CC)OCCCC/C=C\CC)cc4)CC3)CC2)cc1)OCCCC/C=C\CC [7-8, (((((disulfanediylbis(ethane-2,1-diyl))bis(piperidine-1,4-diyl))bis(ethane-2,1-diyl))bis(oxy))bis(2-oxoethane-2,1-diyl))bis(4,1-phenylene) bis(5,5-bis(((Z)-oct-5-en-1-yl)oxy)pentanoate)] | 13.7
88.2 | 72.1 | 0.09 |  |  |  | CC/C=C\CCCCOC(CCC(=O)Oc1ccc(CC(=O)OCCC2CCN(CCSSCCN3CCC(CCOC(=O)Cc4ccc(OC(=O)CCC(OCCCC/C=C\CC)OCCCC/C=C\CC)cc4)CC3)CC2)cc1)OCCCC/C=C\CC [7-9, (((((disulfanediylbis(ethane-2,1-diyl))bis(piperidine-1,4-diyl))bis(ethane-2,1-diyl))bis(oxy))bis(2-oxoethane-2,1-diyl))bis(4,1-phenylene) bis(4,4-bis(((Z)-oct-5-en-1-yl)oxy)butanoate)] | 
 |  |  | 0.50 | 1.02 | 1.46 | CCCCC/C=C\C/C=C\CCCCCCCCC(CCCCCCCC/C=C\C/C=C\CCCCC)OC(=O)CCCN(C)C [MC3, (6Z,9Z,28Z,31Z)-heptatriaconta-6,9,28,31-tetraen-19-yl 4-(dimethylamino) butanoate] | 
